The text below walks through data of US20140155397A1, “EMT SIGNATURES AND PREDICTIVE MARKERS AND METHOD OF USING THE SAME” (Board of Regents, priority 2011, published 2014).

Each structure is given as a SMILES string. Read-outs that look alike come from different tables or passages of the source.

The Ki is the equilibrium dissociation constant of an inhibitor or competing ligand from its target. The IC50 is the concentration needed to halve the response being measured. A word on the EC50: it is the concentration that produces a half-maximal response.

The target of experiment [1] is T1, AXL (Homo sapiens, UniProt P30530).
T1 sequence (P30530 26-894): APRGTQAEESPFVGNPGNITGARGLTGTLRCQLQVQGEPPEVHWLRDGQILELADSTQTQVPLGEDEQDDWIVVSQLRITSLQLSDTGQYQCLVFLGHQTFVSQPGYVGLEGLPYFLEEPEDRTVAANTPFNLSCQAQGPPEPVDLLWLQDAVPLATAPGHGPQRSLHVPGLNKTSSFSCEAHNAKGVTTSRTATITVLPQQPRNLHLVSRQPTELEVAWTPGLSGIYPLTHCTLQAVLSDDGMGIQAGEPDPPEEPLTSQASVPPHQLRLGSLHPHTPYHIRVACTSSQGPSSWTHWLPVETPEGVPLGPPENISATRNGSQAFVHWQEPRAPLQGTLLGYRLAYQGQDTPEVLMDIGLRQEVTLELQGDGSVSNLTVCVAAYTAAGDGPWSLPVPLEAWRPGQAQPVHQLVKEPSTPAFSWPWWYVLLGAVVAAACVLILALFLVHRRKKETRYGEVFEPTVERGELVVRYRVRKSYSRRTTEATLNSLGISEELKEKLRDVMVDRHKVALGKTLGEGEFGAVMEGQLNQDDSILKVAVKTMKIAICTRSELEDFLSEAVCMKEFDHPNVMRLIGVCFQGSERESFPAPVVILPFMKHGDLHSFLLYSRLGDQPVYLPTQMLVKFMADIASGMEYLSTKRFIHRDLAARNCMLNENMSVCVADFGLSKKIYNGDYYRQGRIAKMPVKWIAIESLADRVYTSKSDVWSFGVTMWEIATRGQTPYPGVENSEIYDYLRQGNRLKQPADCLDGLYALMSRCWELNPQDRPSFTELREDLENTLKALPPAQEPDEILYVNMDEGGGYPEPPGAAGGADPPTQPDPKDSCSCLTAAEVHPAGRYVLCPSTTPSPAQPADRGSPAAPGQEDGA
In words: Inhibition of purified recombinant AXL kinase. The class given is biochemical. The source says:
(§1) Purified recombinant AXL kinase was used to screen a library of structures with appropriate drug-like scaffolds to identify potential inhibitors. Hits from the screen were confirmed and r analyzed by selection criteria including Lipinski rules. One pyrrolopyrimidine-based compound was selected for structure-activity relationship efforts. Optimization of this scaffold and subsequent evaluation led to the generation of compound SG1-7079 as the lead candidate inhibitor (FIG. 10). […] SGI-7079 was screened against a panel of protein kinases to determine both selectivity and biochemical potency.

For another experiment, the target named is T2, Tyro3 (Homo sapiens, UniProt Q06418).
T2 sequence (Q06418 41-890): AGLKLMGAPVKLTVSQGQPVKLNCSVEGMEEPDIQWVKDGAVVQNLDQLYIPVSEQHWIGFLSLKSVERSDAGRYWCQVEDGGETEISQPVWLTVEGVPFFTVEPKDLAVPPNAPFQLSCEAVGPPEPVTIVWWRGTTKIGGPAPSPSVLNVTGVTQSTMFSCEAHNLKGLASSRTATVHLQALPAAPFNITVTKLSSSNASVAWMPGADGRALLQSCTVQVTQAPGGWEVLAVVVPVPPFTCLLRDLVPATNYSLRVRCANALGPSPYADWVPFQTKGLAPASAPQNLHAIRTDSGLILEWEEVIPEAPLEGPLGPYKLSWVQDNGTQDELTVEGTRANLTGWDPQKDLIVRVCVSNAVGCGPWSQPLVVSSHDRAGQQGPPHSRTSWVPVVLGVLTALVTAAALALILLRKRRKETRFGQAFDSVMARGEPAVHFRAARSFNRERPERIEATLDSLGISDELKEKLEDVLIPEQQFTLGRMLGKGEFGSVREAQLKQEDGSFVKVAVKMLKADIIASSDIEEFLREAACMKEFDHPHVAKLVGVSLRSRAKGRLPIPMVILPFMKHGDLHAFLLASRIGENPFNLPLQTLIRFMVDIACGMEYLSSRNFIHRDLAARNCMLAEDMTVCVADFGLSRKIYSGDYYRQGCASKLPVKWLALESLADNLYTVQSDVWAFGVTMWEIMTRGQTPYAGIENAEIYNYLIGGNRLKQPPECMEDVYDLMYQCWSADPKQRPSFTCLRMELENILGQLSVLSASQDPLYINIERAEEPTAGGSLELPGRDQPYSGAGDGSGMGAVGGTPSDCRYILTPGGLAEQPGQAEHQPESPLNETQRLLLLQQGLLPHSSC
In words: Protein kinase panel. The class given is biochemical.
Description: as §1

Another experiment deals with NSCLC cell lines. In words: Drug sensitivity (growth inhibition, MTS assay) of epithelial versus mesenchymal NSCLC cell lines. The class given is cell-based. The source says:
(§2) Average values were used for analysis as described. […] Chou T. C., et al., Quantitative Analysis of Dose-Effect Relationships: The Combined Effects of Multiple Drugs or Enzyme Inhibitors. Adv Enzyme Regul.
The EMT signature was derived in 54 DNA fingerprinted NSCLC cell lines profiled on Affymetrix U133A, B, and Plus2.0 arrays and tested on the Illumina WGv2 and WGv3 platforms and in an independent set of head and neck cancer lines (HNC). E-cadherin and other protein levels were quantified by reverse phase protein array and correlated with the first principal component of the EMT signature. IC50s were determined for NSCLC cell lines by MTS assay. Response to erlotinib was evaluated in patients treated in the BATTLE clinical trial using eight-week disease […] and progression free survival.
In general terms: Formazan colour is commonly taken as a measure of viable cells.

The next experiment concerns A549. Kind of experiment: Proliferation, CellTiter-Glo Luminescent Cell Viability. The class given is cell-based. The note with it: single agent.
Description: as §2
In general terms: ATP-based viability assays read luminescence as a measure of living cells.

The test system of a further experiment is Calu-1. The experiment is described as above. The class given is cell-based. The note with it: single agent.
Description: as §2

The subject of the next experiment is H1299. The description is as above. Conditions: single agent. The class given is cell-based.
Description: as §2

The subject of the next experiment is H157. The description is as above. Format: cell-based. The note with it: single agent.
Description: as §2

A further experiment deals with H2882. The description is as above. Conditions: single agent. The class given is cell-based.
Description: as §2

The subject of the next experiment is H460. The description is as above. Format: cell-based. Conditions: single agent.
Description: as §2

Experiment [2] deals with Cells expressing high levels of Axl. Kind of experiment: Proliferation of six mesenchymal cell lines expressing high levels of Axl (summary). Conditions: single agent. The class given is cell-based.
Description: as §2

Experiment [3] concerns the target T1, AXL. In words: Gas6 ligand-induced tyrosine phosphorylation of human AXL expressed in HEK293T cells. Format: cell-based. Details: expressed in transfected cells; host or cells: HEK293T. Conditions: read-out: EC50, inhibition of Gas6 ligand-induced tyrosine phosphorylation of AXL.

Regarding `Cc1c[nH]c2nc(Nc3ccc(N4CCN(C)CC4)c(F)c3)nc(-c3cccc(CC#N)c3)c12` [SGI-7079], the Ki at AXL [1] was 5.7 nM. Further, the “Inhibition of Tyro3” value on Tyro3 was “similarly as AXL”. Further, in the experiment on NSCLC cell lines (SGI-7079 versus erlotinib, p<0.001 by Wilcoxon test), the “Sensitivity of mesenchymal cells” value was “relatively sensitive”. Moreover, the “Fold more sensitive, mesenchymal versus epithelial cells” value with NSCLC cell lines (p-value 0.17, not statistically significant) was found to be 1.3 fold. Further, the IC50 with A549 is 920 nM; in the experiment on Calu-1, 2440 nM; in the experiment with H1299, 1740 nM; in the experiment on H157 it was 740 nM; with H2882, 4290 nM; in the experiment on H460, 2010 nM. Further, the IC50 in experiment [2] (read-out: IC50 range across cell lines) was 740 to 4290 nM; in experiment [2] (read-out: Mean IC50 across cell lines), 1300 nM. For the same molecule, the EC50 on AXL [3] was 100 nM.
